What was measured:
[1] = test system: mice with pulmonary fibrosis; assay: Weight measurement in bleomycin pulmonary fibrosis model (Experimental Example 2); assay type: in vivo, C57BL6J mice; details: compared with the model group; bleomycin 3 mg/kg intratracheal, treatment from week 1 for two weeks; FIG. 1
Text: Establishment of pulmonary fibrosis model: 6-8 week old C57BL6J mice were selected and acclimatized for one week. In the model group, apremilast inhalation (Example 2) treatment group, roflumilast inhalation (Example 5) treatment group, crisaborole inhalation (Example 3) treatment group, apremilast oral administration treatment group (Comparative Example 1), and nintedanib oral administration treatment group (Comparative Example 2, nintedanib is a commonly used drug for treating IPF in the prior art), the animals were treated with bleomycin solution (3 mg/kg/50 μl) via intratracheal instillation on the first day, and in the control group, the animals were treated with an equal volume of physiological saline. Treatment started one week later and lasted for two weeks, and a total of three weeks was required. […]
(§1) Weight measurement: The weight of mice was measured and recorded at a fixed time on the morning each week, and the weight changes of mice in each group at different times were observed.
Statistical analysis: The results were statistically analyzed using Graphpad Prism 9.0 software for the experimental data of each group. […] The measurement data were expressed as mean #standard deviation (mean±SD). […]

[2] = test system: mice with pulmonary fibrosis; assay: MASSON staining of lungs in bleomycin pulmonary fibrosis model (Experimental Example 2); assay type: in vivo, C57BL6J mice; details: FIG. 2; for collagen fibers / collagen deposition (MASSON staining): compared with the model group; for pathological changes in the lungs (MASSON staining): inhalation groups compared with model group, oral groups compared with inhalation groups
Text: (§2) Establishment of pulmonary fibrosis model: 6-8 week old C57BL6J mice were selected and acclimatized for one week. In the model group, apremilast inhalation (Example 2) treatment group, roflumilast inhalation (Example 5) treatment group, crisaborole inhalation (Example 3) treatment group, apremilast oral administration treatment group (Comparative Example 1), and nintedanib oral administration treatment group (Comparative Example 2, nintedanib is a commonly used drug for treating IPF in the prior art), the animals were treated with bleomycin solution (3 mg/kg/50 μl) via intratracheal instillation on the first day, and in the control group, the animals were treated with an equal volume of physiological saline. Treatment started one week later and lasted for two weeks, and a total of three weeks was required. The bleomycin solution was prepared by mixing bleomycin dry powder with sterile PBS to reach the required concentration (non-surgical method of intratracheal injection of bleomycin into mouse lungs: the mice were anesthetized with isoflurane and suspended on a surgical stent at a 70° angle. Bleomycin was administered via intratracheal instillation using a 200 μl pipette).
(§3) HE staining and MASSON staining: Mouse lung tissue was fixed in 4% paraformaldehyde for 24 h, rinsed with running water overnight, dehydrated with alcohol conventionally, embedded in paraffin, cut into 5 μm sections, and stained with HE and MASSON respectively. After clearing with xylene, the sections were mounted with neutral resin. The pathological changes in the lungs were observed and photographed under an optical microscope.

[3] = test system: mice with pulmonary fibrosis; assay: HE staining of lungs in bleomycin pulmonary fibrosis model (Experimental Example 2); assay type: in vivo, C57BL6J mice; details: FIG. 3; for alveolar structure (HE staining): compared with the model group
Text: as §2, §3

[4] = test system: mice with pulmonary fibrosis; assay: Detection of MDA and HYP content in the lungs, bleomycin pulmonary fibrosis model (Experimental Example 2); assay type: in vivo, C57BL6J mice; details: compared with model group; FIG. 4
Text: as §2
(§4) Detection of malondialdehyde (MDA) and hydroxyproline (HYP) content in the lungs: An appropriate amount of lung tissue was taken from the mice in each group, homogenized (the ground tissue was centrifuged at 3000 rpm for 10 min and the supernatant was taken for later use), and the MDA and HYP content in the lungs was detected according to the kit instructions. MDA stands for malondialdehyde, a product of lipid peroxidation that reflects oxidative damage, while HYP stands for hydroxyproline level, which reflects the level of pulmonary fibrosis.
(§5) Statistical analysis: The results were statistically analyzed using Graphpad Prism 9.0 software for the experimental data of each group. All experimental data underwent normality test. The measurement data were expressed as mean #standard deviation (mean±SD). One-way ANOVA was used to compare the means of multiple groups of samples. P<0.05 is considered statistically significant.

[5] = test system: mice with pulmonary fibrosis; assay: Weight measurement in bleomycin pulmonary fibrosis model (Experimental Example 4); assay type: in vivo, C57/BL6J mice; details: FIGS. 5 and 6
Text: (§6) Establishment of pulmonary fibrosis model: 6-8 week old C57/BL6J mice were selected and acclimatized for one week. The mice were divided into blank control group, model group, apremilast inhalation (Example 2) treatment group, roflumilast inhalation (Example 5) treatment group, crisaborole inhalation (Example 3) treatment group, ibudilast inhalation (Example 10) treatment group, difamilast inhalation (Example 9) treatment group, ibudilast oral administration (Comparative Example 3) treatment group, difamilast oral administration (Comparative Example 4) treatment group, and nintedanib oral administration (Comparative Example 2, nintedanib is a commonly used drug for treating IPF in the prior art) treatment group, with n=8 in each group. On the first day, the mice in the model group and the treatment groups were administered bleomycin solution (3 mg/kg/50 μl) via tracheal instillation, while the control group was treated with an equal volume of physiological saline. Treatment began in each treatment group one week later and lasted for two weeks, and a total of three weeks was required. The bleomycin solution was prepared by mixing bleomycin dry powder with sterile PBS to reach the required concentration (non-surgical method of intratracheal injection of bleomycin into mouse lungs: the mice were anesthetized by inhaling isoflurane, and suspended on a surgical stent at a 70° angle, and bleomycin was administered via intratracheal instillation using a 200 μl pipette).
as §1
as §5, with “mean±standard” for “mean #standard”

[6] = test system: mice with pulmonary fibrosis; assay: MASSON staining of lungs in bleomycin pulmonary fibrosis model (Experimental Example 4); assay type: in vivo, C57/BL6J mice; details: FIG. 7; for collagen fibers / collagen deposition (MASSON staining): compared with the model group; for lung damage / pathological changes (MASSON staining): inhalation groups compared with model group, oral groups compared with inhalation groups
Text: as §6
as §3, with “as usual,” for “conventionally,”, “paraffin, then serially” for “paraffin,”, “sections (5 μm),” for “5 μm sections,”, “sections” for “pathological changes in the lungs”

[7] = test system: mice with pulmonary fibrosis; assay: HE staining of lungs in bleomycin pulmonary fibrosis model (Experimental Example 4); assay type: in vivo, C57/BL6J mice; details: FIG. 8; for alveolar structure (HE staining): compared with the model group
Text: as §6
as §3, with “as usual,” for “conventionally,”, “paraffin, then serially” for “paraffin,”, “sections (5 μm),” for “5 μm sections,”, “sections” for “pathological changes in the lungs”

[8] = test system: mice with pulmonary fibrosis; assay: Detection of MDA and HYP content in the lungs, bleomycin pulmonary fibrosis model (Experimental Example 4); assay type: in vivo, C57/BL6J mice; details: compared with model group; FIG. 9
Text: as §6
as §4, with “instructions (MDA” for “instructions. MDA”, “damage;” for “damage, while”, “(hydroxyproline) level” for “stands for hydroxyproline level, which”, “degree” for “level”, “fibrotic deposition in the lungs).” for “pulmonary fibrosis.”
as §5, with “mean±standard” for “mean #standard”

[9] = 14th day compared to the 7th day after model establishment

| SMILES | weight recovery [1] | collagen fibers / collagen deposition (MASSON staining) [2] | pathological changes in the lungs (MASSON staining) [2] | inflammatory cell infiltration (HE staining) [3] | alveolar structure (HE staining) [3] | HYP content in the lungs (collagen deposition) [4] | MDA content in the lungs (oxidative stress level) [4] | weight recovery [5, 9] | weight recovery ([5]; compared with the model group) | collagen fibers / collagen deposition (MASSON staining) [6] | lung damage / pathological changes (MASSON staining) [6] | inflammatory cell infiltration (HE staining) [7] | alveolar structure (HE staining) [7] | HYP content in the lungs (collagen deposition) [8] | MDA content in the lungs (oxidative stress level) [8] |
| --- | --- | --- | --- | --- | --- | --- | --- | --- | --- | --- | --- | --- | --- | --- | --- |
| COC(=O)c1ccc2c(c1)NC(=O)/C2=C(\Nc1ccc(N(C)C(=O)CN2CCN(C)CC2)cc1)c1ccccc1 [Comparative Example 2, nintedanib] | no significant difference in weight recovery | reduced collagen deposition | slightly thickened alveolar interstitium and a few visible collagen fibers | a few inflammatory cell infiltrations | improved alveolar structure | slight tendency to alleviate MDA and HYP in the lungs, but the results were not statistically significant | slight tendency to alleviate MDA and HYP in the lungs, but the results were not statistically significant | did not show significant body recovery | no significant difference in weight recovery | reduced collagen deposition | slightly thickened alveolar interstitium and a few visible collagen fibers | a few inflammatory cell infiltrations | improved the alveolar structure | slight downward trend, but this did not have statistical significance | slight downward trend, but this did not have statistical significance |
| CCOc1cc([C@@H](CS(C)(=O)=O)N2C(=O)c3cccc(NC(C)=O)c3C2=O)ccc1OC [Comparative Example 1, apremilast] | significant weight recovery | reduced collagen deposition | slightly thickened alveolar interstitium and a few visible collagen fibers | a few inflammatory cell infiltrations | improved alveolar structure | slight tendency to alleviate MDA and HYP in the lungs, but the results were not statistically significant | slight tendency to alleviate MDA and HYP in the lungs, but the results were not statistically significant | significant weight recovery | significant weight recovery | reduced collagen deposition | slightly thickened alveolar interstitium and a few visible collagen fibers | a few inflammatory cell infiltrations | improved the alveolar structure | slight downward trend, but this did not have statistical significance | slight downward trend, but this did not have statistical significance |
| CCOc1ccccc1C(=O)NCc1coc(-c2ccc(OC(F)F)c(OC(C)C)c2)n1 [Comparative Example 4, difamilast] | – | – | – | – | – | – | – | significant weight recovery | significant weight recovery | reduced collagen deposition | slightly thickened alveolar interstitium and a few visible collagen fibers | a few inflammatory cell infiltrations | improved the alveolar structure | slight downward trend, but this did not have statistical significance | slight downward trend, but this did not have statistical significance |
